Assay: Salidiuretic screening test in rats (Lipschitz method modified by Kagawa and Kalm), 5 mg/kg p.o.
Format: in vivo, rats (LATI CFY strain, male)
Details: for K secretion, % of simultaneously measured control / Na secretion, % of simultaneously measured control / Water secretion, % of simultaneously measured control / secreted Na/K: single oral dose 5 mg/kg, rat; for Na/K ratio (in words) / secretion of urine amount and alkali metal ion: 5 mg/kg per os, rats; for secretion of urine amount and alkali metal ion: compared with dihydrochlorothiazide and furosemid
Description: Significant diuretic compounds containing an isoquinoline ring system have not been disclosed and therefore it is surprising that the compounds of the Formula (I) show a significant diuretic and saluretic activity. In a screening test carried out in rats (administered per os 5 mg/kg) the compounds according to the invention were compared with dihydrochlorothiazide and furosemid. […] Screen tests were carried out in masculine rats belonging to […] strain weighing at an average 240 g. The animals obtained standard rat nourishment. 16 hours before the experiment the animals were deprived of nourishment but the liquid uptake was not restricted. In order to show diuretic activity the procedure of Lipschitznek modified by Kagawa and Kalm was used. (Arch. Int. Pharmacodyn. 137, 241-249 (1962). The animals were placed into a metabolism cage. The urine collection was carried out in 0-6 and 0-24 hour periods. The control animals were administered 25 cm^3 /kg physiological salt solution through a gastric tube. The test substance was administered to the animals through a gastric tube at a dose of 5 mg/kg in physiological salt solution of an amount corresponding to the amount of physiological salt solution given to the control animals. After 6 hours the animals were administered the same volume of physiological saline solution as the volume excreted with 0-6 hours through a gastric tube. The amount of secreted urine between 0 to 6 and 0 to 24 hours was measured and calculated together with the concentration of sodium and potassium and the Na/K ratio of the urine secreted within a given period. Simultaneously with each test control groups treated with physiological salt solution and hypothiazide were used. Effect of a single oral dose of 5 mg/kg of the compouns on the secretion of water, sodium and potassium within 0-6 and 0-24 hours in the % of the simultaneously measured control values and on the secreted Na/K.

SMILES | K secretion, % of simultaneously measured control (0-6 h) [%] | Na secretion, % of simultaneously measured control (0-6 h) [%] | Water secretion, % of simultaneously measured control (0-6 h) [%] | secreted Na/K (0-6 h, control 1.81) | K secretion, % of simultaneously measured control (0-24 h) [%] | Na secretion, % of simultaneously measured control (0-24 h) [%] | Water secretion, % of simultaneously measured control (0-24 h) [%] | secreted Na/K (0-24 h, control 2.45) | Na/K ratio (in words) | secretion of urine amount and alkali metal ion
NS(=O)(=O)c1cc(C(=O)NN2CCc3ccccc3C2)ccc1Cl [Example 1, 2-[(3'-sulfamoyl-4'-chloro)-benzoyl]-amino-1,2,3,4-tetrahydro-isoquinoline] | 145 | 260 | 216 | 9.09 | 82 | 152 | 148 | 5.94 | favorable | particularly advantageous
CC1c2ccccc2CCN1NC(=O)c1ccc(Cl)c(S(N)(=O)=O)c1 (stereo not drawn) [Example 2, 1-methyl-2-[(3'-sulfamoyl-4'-chloro)-benzoyl]-amino-1,2,3,4-tetrahydro-isoquinoline] | 170 | 279 | 233 | 7.56 | 100 | 151 | 154 | 5.38 | favorable | particularly advantageous
COc1cc2c(cc1OC)C(C)N(NC(=O)c1ccc(Cl)c(S(N)(=O)=O)c1)CC2 (stereo not drawn) [Example 3, 1-methyl-2-[(3'-sulfamoyl-4'-chloro-benzoyl)-amino]-6,7-dimethoxy-1,2,3,4-tetrahydro-isoquinoline-monohydrate] | 104 | 186 | 147 | 4.74 | 84 | 121 | 112 | 3.99 |  | 
NS(=O)(=O)c1cc2c(cc1Cl)NCNS2(=O)=O [Hypothiazide, reference compound] | 117 | 187 | 159 | 3.90 | 109 | 123 | 119 | 3.50 |  | 

Reference: US4940716A, “2-amino-tetrahydro-isoquinolene derivatives and a process for the preparation thereof and pharmaceutical compositions containing same” (Chinoin Gyogyszer es Vegyeszeti Termekek Gyara Rt, priority 1987, dated 1990)
